Source: patent US9562082B2, “Production of glycoproteins with low N-glycolylneuraminic acid (Neu5Gc) content” (LEK Pharmaceuticals D.D., priority 2009, dated 2017)

Test system: Recombinant CHO cells
Assay: Neu5Gc content of glycoprotein secreted by CHO cells cultivated with medium additives (RP-HPLC of DMB-labelled sialic acids)
Type: cell-based, Chinese hamster
Conditions: NAcMan 5 mM in fermentation medium, darbepoetin alfa
Text: Recombinant CHO cells expressing high titres of the glycosylated human glycoproteins were cultivated in suspension culture using rich in-house standard medium without additives according to the invention. After 2 weeks of passages, the cells were first harvested and subsequently inoculated into the same medium, however, supplemented with a range of DMSO concentrations from 0.25% to 1.50% (w/v). The effect of DMSO on growth, productivity, degree of sialylation, and Neu5Gc content was studied.
“One factor at the time”-experiments with different DMSO concentrations at 37° C. and 33° C., respectively, were performed at first in an attempt to determine the DMSO concentration and temperature which are best to minimise the Neu5Gc content on the glycoproteins secreted. To study the interaction between the parameters (i) DMSO concentration, (ii) time of DMSO addition, and (iii) time of the temperature shift (from 37° C. to 33° C.), further experiments were performed with the Design-Expert/Design-Ease programme (Stat-Ease, Inc., Minneapolis, Minn., USA) using the response surface method. Parameters (i), (ii), and (iii) were chosen as numeric factors and the axial points were set slightly out of already known ranges in order to cover a wide design space. One replicate on axial points, one replicate on factorial points and 4 centre points were performed. The results were analysed using the Design of Expert (DOE) software (Design-Expert, Version 7.1). The results of the shake flask experiments were confirmed in the Biostat®B bioreactor (Sartorius, B. Braun Biotech International, Germany). Exponentially growing cells were taken from cell culture flasks having a surface area of 225 cm^2 (Corning®Costar®). A Biostat®B bioreactor with a working volume of 5 litres was inoculated with 2×10^5 cells/ml. Cells were cultivated in a batch mode under standard conditions (37° C., pH 7.0, dissolved oxygen concentration (DOT) 50%) in the rich in-house standard medium supplemented with 0.75% (w/v) DMSO.
In order to study the effect of key intermediates of the metabolic pathway leading to the sialylation of the glycoproteins and consequently to the conversion of Neu5Ac to Neu5Gc, a two factorial minimal resolution IV design, which allows for the estimation of the main effects, was established. Said design allowed the determination which of the components NAcMan, NAcGlc, Man, Fru, and Gal has/have an impact on the degree of sialylation and conversion of Neu5Ac to Neu5Gc. To confirm the results from the DOE findings, the production medium was enriched with 8.75 mM NAcMan and 8.75 mM NAcGlc in combination with manganese (Mn^2+) salts in different concentrations, e.g., in the concentrations mentioned earlier in this application.
At the end of the batch culture the cells were removed. The glycoproteins were purified from the remaining harvests by means of immuno-affinity chromatography. Briefly, up to 2 mg of each of the glycoproteins per ml of the chromatographic resin (20-500 ml of the harvest) were loaded onto the column. Elution of the glycoproteins was performed with 0.1 M Na-phosphate buffer, pH 2.5. By adding 1 M Na-phosphate buffer, pH 7.5 (made up by a combination of Na2H-phosphate and NaH2-phosphate), the pH of the eluate was immediately adjusted to 7 and then stored for further analysis at below −60° C.
Sialic acids (Neu5Gc, Neu5Ac, Neu-5,7Ac2, Neu5Gc9Ac, Neu-5,9Ac2, Neu-5,8,9Ac3) were differentiated using highly sensitive RP-HPLC. Enzymatic desialylation with neuraminidase (a2-3,6,8,9-neuraminidase (Sialidase) from Arthrobacter ureafaciens, Roche, USA) released sialic acids. The released sialic acids were labelled with the fluorescent dye 1,2-diamino-4,5-methylenedioxybenzene (DMB). DMB-labelling is non-selective and therefore provides a pool of labelled sialic acid derivates in stoichiometric amounts. Derivates of the DMB-labelled sialic acids were separated on an RP-HPLC column using isocratic elution. […]

With CC(=O)N[C@@H]1C(O)O[C@H](CO)[C@@H](O)[C@@H]1O (stereo partly drawn) [NAcMan, N-acetylmannosamine] the “content of Neu5Gc” value was “about 0.5%”.

Target: T1, CMP-Neu5Ac hydroxylase (Mus musculus, UniProt Q61419)
T1 sequence (Q61419 5-577): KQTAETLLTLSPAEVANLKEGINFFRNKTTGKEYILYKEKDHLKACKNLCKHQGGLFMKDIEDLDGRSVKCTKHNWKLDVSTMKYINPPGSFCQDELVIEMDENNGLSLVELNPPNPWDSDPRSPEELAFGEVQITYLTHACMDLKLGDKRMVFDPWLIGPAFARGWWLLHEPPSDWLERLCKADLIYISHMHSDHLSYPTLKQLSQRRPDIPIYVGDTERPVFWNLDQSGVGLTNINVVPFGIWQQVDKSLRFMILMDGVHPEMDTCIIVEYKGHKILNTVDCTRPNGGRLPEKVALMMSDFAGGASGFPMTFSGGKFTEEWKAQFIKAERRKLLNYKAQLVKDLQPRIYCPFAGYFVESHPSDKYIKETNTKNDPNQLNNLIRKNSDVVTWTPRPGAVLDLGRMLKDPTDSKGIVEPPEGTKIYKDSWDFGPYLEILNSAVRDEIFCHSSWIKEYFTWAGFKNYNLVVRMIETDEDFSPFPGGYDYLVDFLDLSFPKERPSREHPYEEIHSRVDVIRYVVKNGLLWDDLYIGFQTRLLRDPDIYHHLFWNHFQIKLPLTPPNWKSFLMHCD
Assay: not given
Design: concentration or dose not given beside the values
Conditions: in vitro; cited from earlier work

First: [Co+2] [Co^2+]
Second: [Cu+2] [Cu^2+]
The “inhibition of CMP-Neu5Ac hydroxylase” value of the first is lower: 50% for the first, 80% for the second.

Going from O=C(O)CN(CCN(CC(=O)O)CC(=O)O)CC(=O)O [EDTA] to O=S(=O)(O)c1cc(O)c(O)c(S(=O)(=O)O)c1 [tiron], the “inhibition of CMP-Neu5Ac hydroxylase” value rises from 60% to 100%.

[Mn+2] [Mn^2+] and [Ni+3] [Ni^3+] are the same in “inhibition of CMP-Neu5Ac hydroxylase” value: 50% for the first, 50% for the second.

Compared with [Zn+2] [Zn^2+], O=S(=O)([O-])c1ccc(-c2nnc(-c3ccccn3)nc2-c2ccc(S(=O)(=O)[O-])cc2)cc1.[Na+].[Na+] [ferozzine] is lower in “inhibition of CMP-Neu5Ac hydroxylase” value: 30% for the first, 25% for the second.

For c1cnc2c(c1)ccc1cccnc12 [phenanthreoline], the “inhibition of CMP-Neu5Ac hydroxylase” value is listed as 25%.

Test system: chickens
Assay: not given
Conditions: rhEPO 1% Neu5Gc, fetuin 7% Neu5Gc, GM3 all Neu5Ac converted into Neu5Gc; cited from earlier work

For “fetuin: glycoprotein with a content of Neu5Gc amounting to 7%”, the “titre of antibodies against Neu5Gc in immunised chickens” value is given as “a significant titre of antibodies against Neu5Gc”.
For “rhEPO: recombinant human erythropoietin produced by Chinese hamster ovary (CHO) cells”, the “titre of antibodies against Neu5Gc in immunised chickens” value is given as “did not produce a significant titre”.
